In article PMC5499824 (Nucleic Acids Research, 2017):
Where a chain is given by its changes, count along the chain named.

Assays:
hNSun6 [1] = molecular target: T1, hNSun6 (Homo sapiens, UniProt Q8TEA1); experiment: isothermal titration calorimetry; type: binding
T1 sequence (Q8TEA1 1-469): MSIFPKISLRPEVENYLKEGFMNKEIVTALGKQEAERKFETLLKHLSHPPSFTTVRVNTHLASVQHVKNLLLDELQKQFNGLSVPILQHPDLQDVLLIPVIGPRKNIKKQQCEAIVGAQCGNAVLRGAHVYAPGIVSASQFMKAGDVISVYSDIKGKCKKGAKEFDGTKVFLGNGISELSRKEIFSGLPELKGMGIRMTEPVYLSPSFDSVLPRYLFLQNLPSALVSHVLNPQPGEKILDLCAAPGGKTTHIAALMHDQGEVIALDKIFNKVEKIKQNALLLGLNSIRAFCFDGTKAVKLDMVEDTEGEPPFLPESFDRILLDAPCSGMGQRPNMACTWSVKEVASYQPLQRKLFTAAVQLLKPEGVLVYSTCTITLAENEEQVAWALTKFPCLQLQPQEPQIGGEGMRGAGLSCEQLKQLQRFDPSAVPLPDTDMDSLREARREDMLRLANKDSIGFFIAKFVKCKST

hNSun6 [2] = molecular target: T2, hNSun6 (Homo sapiens, UniProt Q8TEA1, K248A); experiment: isothermal titration calorimetry; type: binding
T2 sequence (Q8TEA1 1-469 K248A): T1 sequence (Q8TEA1 1-469) with K248A

Kd (hNSun6 [1]): 1.7 µM
Kd (hNSun6 [2]): 10.3 µM
Compound: C[S+](CC[C@H](N)C(=O)O)C[C@H]1O[C@@H](n2cnc3c(N)ncnc32)[C@H](O)[C@@H]1O (some centres unmarked) [SAM]
